In PubChem BioAssay (NCI):
Values joined by “and” are separate entries in the source; they are usually repeats but may differ in a detail not shown here. Equal entries are not always repeated.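 Cultured in 96-well plates, cells were exposed to test compound for 48 hours across five concentrations. The concentration for 50% growth inhibition is given as GI50. TGI: concentration producing complete growth inhibition.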

The compounds below were run on CAKI-1 renal (assay: inhibition of tumour cell growth, NCI panel, 48 h).

SMILES	GI50	TGI
CC[C@@H](c1ccc(O)c(O)c1)[C@@H](CC)c1ccc(O)c(O)c1	2.77 µM	9.43 µM
O=C1OCC2=C1C(c1cccc(Br)c1)c1cc3c(cc1N2CCO)OCCO3 (stereo not drawn)	0.0522 µM	7.54 µM
COc1cc(-c2nn(-c3cccc(NC(=O)c4ccccc4)c3)cc2-c2ccncc2)ccc1Cl	0.836 µM	> 40.5 µM
O=C1CSC(=S)N1/N=C/c1ccc(Cl)c([N+](=O)[O-])c1		> 100 µM
CCCCCCCCCCSC(=N)N (tested in a mixture with another compound)	2.03 µM	5.04 µM
CCOc1ccc(NC2=CC(=O)C(=O)c3ccccc32)cc1		20.9 µM
COc1cc2c(cc1OC)-c1cc(OC)c(OC)cc1C(CN(C)C)C2 (stereo not drawn)	> 10 µM	> 10 µM
O=C1c2ccccc2C(=O)c2c(/C=C\N3CCCCC3)ccnc21		39.5 µM
O=C(NC1CCCCC1)NS(=O)(=O)c1ccc(N2N=C3c4ccccc4CC3C2c2ccc(Cl)cc2)cc1 (stereo not drawn)	12.8 µM	31.8 µM
c1ccc(-c2n(Cc3ccc4ccccc4n3)cc[n+]2Cc2ccc3ccccc3c2)cc1	1.59 µM	3.54 µM
C[C@@H]1CC[C@H]2C(C)(C)[C@H]3C[C@@]12CC[C@@]3(C)O		> 100 µM
O=C(Nc1cccc(C(F)(F)F)c1)Nc1cccc(C(F)(F)F)c1	1.81 µM	11.2 µM
CC(C)(C)[Si](C)(C)OC1[C@@H](O[Si](C)(C)C(C)(C)C)[C@@H](CNC(=O)NC(=O)C(F)(F)F)O[C@H]1n1cnc2c(NC(=O)Nc3ccccc3)ncnc21 (stereo partly drawn)	8.24 µM	17 µM
CC(=C(c1ccc(OCCN2CCCCC2)cc1)c1ccc(OCCN2CCCCC2)cc1)c1ccc(Cl)cc1	0.397 µM	0.74 µM
C=C(C)C(=O)O[C@@H]1C[C@@]2(C)O[C@@H]2C[C@H](O)/C(C)=C/[C@H]2OC(=O)C(=C)[C@@H]21		67.4 µM
C=CC(=O)Nc1cc(Nc2nccc(-c3cn(C)c4ccccc34)n2)c(OC)cc1N(C)CCN(C)C	0.343 µM and 0.916 µM	6.75 µM and 2.49 µM
Cc1ccc(-c2nc(N3CCNCC3)c3oc(-c4ccc(C)cc4)nc3n2)cc1	24.1 µM	> 45.6 µM
C=C1C(=O)O[C@H]2[C@H]1CC/C(CNC(=O)c1cc3ccccc3[nH]1)=C\CC[C@@]1(C)O[C@@H]21	1.27 µM	4.26 µM
Cc1cc2c(cc1C)[n+](=O)c(C(=O)c1ccccc1)c(C(F)F)n2[O-]	15.5 µM	71.7 µM
Cc1ccc(NC2=C3CCCCC3OC2=O)cc1 (stereo not drawn)	49.5 µM	> 100 µM
COc1cc2c(cc1OC)C(Cl)C(c1ccc(F)cc1)=C2Cl (stereo not drawn)		29.1 µM
COc1ccc2ncnc(Nc3ccc(OCc4ccccc4)cc3)c2c1	3.85 µM	> 17.2 µM
O=C1c2c(F)c(F)c(F)c(F)c2C(=O)N1c1ccc(F)cc1F	8.44 µM	25.5 µM
CC(C)[C@@H]1NC(=O)[C@]2(C)CSC(=N2)c2ccnc(c2)CNC(=O)C[C@@H](/C=C/CCS)OC1=O	2.86 µM	15.6 µM
OC(c1cc(C(F)(F)F)nc2c(C(F)(F)F)cccc12)C1CCCCN1 (stereo not drawn)	1.78 µM	4.67 µM
C/C=C/[C@@H]1O[C@@H]2COC(=O)C2=C[C@@H]1O	2.14 µM	5.03 µM
COC(=O)/C=C/c1cc(OC(C)=O)c2c(c1)[C@@H](C(=O)OC)[C@H](c1ccc(OC(C)=O)c(OC(C)=O)c1)O2	0.314 µM	44.7 µM

These compounds were tested on HCC-2998 colon (assay: inhibition of tumour cell growth, NCI panel, 48 h).

SMILES	GI50	TGI
CC[C@@H](c1ccc(O)c(O)c1)[C@@H](CC)c1ccc(O)c(O)c1	17.4 µM	33.1 µM
O=C1OCC2=C1C(c1cccc(Br)c1)c1cc3c(cc1N2CCO)OCCO3 (stereo not drawn)	0.0927 µM	1.71 µM
COc1cc(-c2nn(-c3cccc(NC(=O)c4ccccc4)c3)cc2-c2ccncc2)ccc1Cl	2.13 µM	33.6 µM
O=C1CSC(=S)N1/N=C/c1ccc(Cl)c([N+](=O)[O-])c1		27.5 µM
CCCCCCCCCCSC(=N)N (tested in a mixture with another compound)	1.6 µM	3.05 µM
CCOc1ccc(NC2=CC(=O)C(=O)c3ccccc32)cc1		26 µM
COc1cc2c(cc1OC)-c1cc(OC)c(OC)cc1C(CN(C)C)C2 (stereo not drawn)	> 10 µM	> 10 µM
O=C1c2ccccc2C(=O)c2c(/C=C\N3CCCCC3)ccnc21		11.9 µM
O=C(NC1CCCCC1)NS(=O)(=O)c1ccc(N2N=C3c4ccccc4CC3C2c2ccc(Cl)cc2)cc1 (stereo not drawn)	3.56 µM	7.53 µM
c1ccc(-c2n(Cc3ccc4ccccc4n3)cc[n+]2Cc2ccc3ccccc3c2)cc1	0.767 µM	2.24 µM
C[C@@H]1CC[C@H]2C(C)(C)[C@H]3C[C@@]12CC[C@@]3(C)O		> 100 µM
O=C(Nc1cccc(C(F)(F)F)c1)Nc1cccc(C(F)(F)F)c1	1.51 µM	6.5 µM
CC(C)(C)[Si](C)(C)OC1[C@@H](O[Si](C)(C)C(C)(C)C)[C@@H](CNC(=O)NC(=O)C(F)(F)F)O[C@H]1n1cnc2c(NC(=O)Nc3ccccc3)ncnc21 (stereo partly drawn)	4.28 µM	10.6 µM
CC(=C(c1ccc(OCCN2CCCCC2)cc1)c1ccc(OCCN2CCCCC2)cc1)c1ccc(Cl)cc1	0.396 µM	0.755 µM
C=C(C)C(=O)O[C@@H]1C[C@@]2(C)O[C@@H]2C[C@H](O)/C(C)=C/[C@H]2OC(=O)C(=C)[C@@H]21		> 100 µM
C=CC(=O)Nc1cc(Nc2nccc(-c3cn(C)c4ccccc34)n2)c(OC)cc1N(C)CCN(C)C	1.56 µM and 1.48 µM	3.37 µM and 2.98 µM
Cc1ccc(-c2nc(N3CCNCC3)c3oc(-c4ccc(C)cc4)nc3n2)cc1	3.61 µM	
C=C1C(=O)O[C@H]2[C@H]1CC/C(CNC(=O)c1cc3ccccc3[nH]1)=C\CC[C@@]1(C)O[C@@H]21	1.85 µM	3.38 µM
Cc1cc2c(cc1C)[n+](=O)c(C(=O)c1ccccc1)c(C(F)F)n2[O-]	32.8 µM	> 100 µM
Cc1ccc(NC2=C3CCCCC3OC2=O)cc1 (stereo not drawn)	> 100 µM	> 100 µM
COc1cc2c(cc1OC)C(Cl)C(c1ccc(F)cc1)=C2Cl (stereo not drawn)		28.5 µM
COc1ccc2ncnc(Nc3ccc(OCc4ccccc4)cc3)c2c1	6.42 µM	18 µM
O=C1c2c(F)c(F)c(F)c(F)c2C(=O)N1c1ccc(F)cc1F	11.2 µM	23.2 µM
CC(C)[C@@H]1NC(=O)[C@]2(C)CSC(=N2)c2ccnc(c2)CNC(=O)C[C@@H](/C=C/CCS)OC1=O	0.173 µM	0.869 µM
OC(c1cc(C(F)(F)F)nc2c(C(F)(F)F)cccc12)C1CCCCN1 (stereo not drawn)	1.46 µM	3.22 µM
C/C=C/[C@@H]1O[C@@H]2COC(=O)C2=C[C@@H]1O	24.1 µM	48.8 µM
COC(=O)/C=C/c1cc(OC(C)=O)c2c(c1)[C@@H](C(=O)OC)[C@H](c1ccc(OC(C)=O)c(OC(C)=O)c1)O2	0.514 µM	22 µM

The compounds below were run on MDA-MB-435 (assay: inhibition of tumour cell growth, NCI panel, 48 h).

SMILES	GI50	TGI
CC[C@@H](c1ccc(O)c(O)c1)[C@@H](CC)c1ccc(O)c(O)c1	3.47 µM	15.1 µM
O=C1OCC2=C1C(c1cccc(Br)c1)c1cc3c(cc1N2CCO)OCCO3 (stereo not drawn)		0.0241 µM
COc1cc(-c2nn(-c3cccc(NC(=O)c4ccccc4)c3)cc2-c2ccncc2)ccc1Cl	0.184 µM	0.508 µM
O=C1CSC(=S)N1/N=C/c1ccc(Cl)c([N+](=O)[O-])c1		54.3 µM
CCCCCCCCCCSC(=N)N (tested in a mixture with another compound)	1.7 µM	3.27 µM
CCOc1ccc(NC2=CC(=O)C(=O)c3ccccc32)cc1		3.19 µM
COc1cc2c(cc1OC)-c1cc(OC)c(OC)cc1C(CN(C)C)C2 (stereo not drawn)	> 10 µM	> 10 µM
O=C1c2ccccc2C(=O)c2c(/C=C\N3CCCCC3)ccnc21		0.289 µM
O=C(NC1CCCCC1)NS(=O)(=O)c1ccc(N2N=C3c4ccccc4CC3C2c2ccc(Cl)cc2)cc1 (stereo not drawn)	18.5 µM	50.3 µM
c1ccc(-c2n(Cc3ccc4ccccc4n3)cc[n+]2Cc2ccc3ccccc3c2)cc1	0.799 µM	2.5 µM
C[C@@H]1CC[C@H]2C(C)(C)[C@H]3C[C@@]12CC[C@@]3(C)O		> 100 µM
O=C(Nc1cccc(C(F)(F)F)c1)Nc1cccc(C(F)(F)F)c1	1.44 µM	5.51 µM
CC(C)(C)[Si](C)(C)OC1[C@@H](O[Si](C)(C)C(C)(C)C)[C@@H](CNC(=O)NC(=O)C(F)(F)F)O[C@H]1n1cnc2c(NC(=O)Nc3ccccc3)ncnc21 (stereo partly drawn)	5.52 µM	16.4 µM
CC(=C(c1ccc(OCCN2CCCCC2)cc1)c1ccc(OCCN2CCCCC2)cc1)c1ccc(Cl)cc1	0.416 µM	0.777 µM
